Test [1] deals with Fbn1^C1039G/+ mice (Marfan mice). As to the kind of experiment: Aortic root growth in Marfan mice by in vivo echocardiography. To be noted: 500 μg/kg/day subcutaneous daily for 60 days, compared to Marfan mice treated with placebo, FIG. 1. An excerpt: (§1) In this Example, a total of 20 mice were used, with 8 mice being wild-type and 12 being Fbn1^C1039G+ mice, also referred to as “Marfan mice”, that are each […] for a fibrillin-1 (Fbn1) allele encoding a cysteine substitution, Cys1039Gly (C1039G), in an epidermal growth factor-like domain of Fbn1 (Fbn1^C1039G/+).
The Fbn1C1039G mice are a well-accepted model of Marfan Syndrome and the Fbn1 mutation is the most common class of mutation causing Marfan Syndrome. Typically, the aortic root in Fbn1C1039G mice undergoes progressive dilatation, evident as early as 2 weeks of age. […] This observed size difference generally becomes more pronounced over time. […] In addition, Fbn1C1039G mice show increased collagen deposition, which is an indirect marker of increased TGF-β signaling.
In order to determine the effects of angiotensin (1-7) peptides, here TXA127, on the normal course of disease development, both wild-type and Marfan mice were each separated into two groups once the mice reached 2 months of age. […]
The primary endpoint of this study was degree of aortic growth observed over the 60 day treatment period, as measured by in vivo echocardiography. […]

Another test concerns wild-type mice. The test can be described thus: Aortic root growth in wild-type mice by in vivo echocardiography. To be noted: 500 μg/kg/day subcutaneous daily for 60 days, compared to wild type mice treated with placebo, FIG. 1.
From the text: as §1
In order to determine the effects of angiotensin (1-7) peptides, here TXA127, on the normal course of disease development, both wild-type and Marfan mice were each separated into two groups once the mice reached 2 months of age. In each of the wild-type mice and Marfan mice, the placebo control group received daily subcutaneous saline injections for 60 days, while the TXA127 group received daily subcutaneous injections of TXA127 at a dose of 500 μg/kg/day for 60 days.
The primary endpoint of this study was degree of aortic growth observed over the 60 day treatment period, as measured by in vivo echocardiography. A baseline echocardiogram was performed just prior to the beginning of the treatment period and then again just prior to sacrifice. After the 60 day treatment period, mice were sacrificed and tissue samples were taken for histological and other analysis.

“Also recorded” adds a separate entry of the source.

“Asp^1-Arg^2-Val^3-Tyr^4-Ile^5-His^6-Pro^7 (DRVYIHP) [TXA127]”: the “degree of aortic root growth” value in test [1] is given as “highly significant reduction; also recorded: essentially eliminated”. Besides, the aortic root growth entry in the test on wild-type mice is on record as “no statistically significant effect”.

For the origin of these results see patent publication US9107870B2, “Angiotensin peptides in treating marfan syndrome and related disorders” (TARIX PHARMACEUTICALS LTD, priority 2013, dated 2015).
